Data as given in PMC8855072, “Trypanosoma cruzi Mitochondrial Peroxiredoxin Promotes Infectivity in Macrophages and Attenuates Nifurtimox Toxicity” (Frontiers in Cellular and Infection Microbiology, 2022).

What was measured:
[1] = biological target: T1, recombinant MPX (rMPX), mitochondrial peroxiredoxin (Trypanosoma cruzi, UniProt O79469); assay: inhibition of peroxynitrite decomposition (CBA oxidation, fluorescence); SDS-PAGE of non-reducible adducts; type: biochemical; conditions: covalent; 100 µM CA, 1 h with pre-reduced MPX (5 µM), excess removed; SIN-1 as peroxynitrite source; holdase activity not inhibited
T1 construct: His-tagged, expressed in E. coli BL21, nickel column; pre-reduced with DTT, DTT removed

[2] = biological target: T1, recombinant MPX (rMPX), mitochondrial peroxiredoxin; assay: competition with peroxynitrite-dependent CBA oxidation (fluorescence); type: biochemical; conditions: mere turnover; pre-reduced MPX 5 µM, peroxynitrite flux ~3 µM/min from SIN-1, CBA 50 µM

T1 sequence (O79469 entry or part of it): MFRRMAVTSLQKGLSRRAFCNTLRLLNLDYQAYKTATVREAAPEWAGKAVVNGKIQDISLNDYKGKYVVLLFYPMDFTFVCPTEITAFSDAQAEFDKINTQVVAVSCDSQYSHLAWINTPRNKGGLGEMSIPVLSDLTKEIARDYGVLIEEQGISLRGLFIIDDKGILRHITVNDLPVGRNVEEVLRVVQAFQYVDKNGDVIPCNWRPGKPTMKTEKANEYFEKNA

| SMILES | inhibition of peroxynitrite decomposition (CBA oxidation, fluorescence); SDS-PAG [1] | competition with peroxynitrite-dependent CBA oxidation (fluorescence) [2] |
| --- | --- | --- |
| [O-][n+]1c(CBr)c(CBr)[n+]([O-])c2ccccc21 [conoidin A] | CA reacts and crosslinks recombinant MPX |  |
| O=NOO [peroxynitrite] |  | The decomposition of peroxynitrite by MPX reduces the oxidant generation of coumarin |
